We go through 31 molecules from US20100292205A1, “Pyrimidone Compounds As GSK-3 Inhibitors” (PFIZER INC., priority 2006, published 2010).

For orientation: inhibition means the share of the control response that was lost under treatment. For orientation: IC50 means the concentration at which inhibition is half-maximal.

The target in one test is T1, Recombinant human GSK3β (Homo sapiens, UniProt P49841).
T1 construct: His-tag; made in house; host or cells: Sf9 insect cells / baculovirus
T1 sequence (P49841 whole entry): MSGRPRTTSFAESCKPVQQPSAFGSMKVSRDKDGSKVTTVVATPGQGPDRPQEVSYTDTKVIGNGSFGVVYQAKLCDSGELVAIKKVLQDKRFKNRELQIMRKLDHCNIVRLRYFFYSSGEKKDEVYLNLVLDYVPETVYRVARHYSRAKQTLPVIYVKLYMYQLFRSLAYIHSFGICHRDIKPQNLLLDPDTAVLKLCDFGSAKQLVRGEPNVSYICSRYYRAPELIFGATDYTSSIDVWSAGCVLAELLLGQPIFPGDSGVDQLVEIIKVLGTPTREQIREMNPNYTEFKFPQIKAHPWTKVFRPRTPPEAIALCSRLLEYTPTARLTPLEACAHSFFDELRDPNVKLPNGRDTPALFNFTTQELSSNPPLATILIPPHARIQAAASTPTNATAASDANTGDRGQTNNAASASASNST
In words: GSK-3β (Glycogen Synthase Kinase) cell free enzyme assay. Format: biochemical. Particulars: 1 μM; Examples 157-199; read-out: Percent inhibition at 1 μM. Summed up:
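Recombinant human GSK3β, expressed in SF9/baculovirus cells and His-tag purified on Ni-NTA Superflow, was preincubated with test agent for 30 minutes at room temperature. Substrate mix was then added to start the reaction in 8 mM MOPS (pH 7.0), 10 mM magnesium acetate, 0.2 mM EDTA, 1 mM DTT, 2 uM cold ATP, 0.025 uCi/well [33P]ATP (120 uL) and 1.0 uM biotinylated peptide. Reactions ran at RT for 60 min.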
In the case of `CCN(c1nc(-c2ccncc2)cc(=O)n1C)C1CCN(S(C)(=O)=O)CC1` [Example 165, 2-{Ethyl[1-(methylsulfonyl)piperidin-4-yl]amino}-3-methyl-6-pyridin-4-ylpyrimidin-4(3H)-one], the inhibition at 1 µM amounted to 80%.
With `Cn1c(NC2CN(S(=O)(=O)c3ccccc3)C2)nc(-c2ccncc2)cc1=O` [Example 171, 3-Methyl-2-{[1-(phenylsulfonyl)azetidin-3-yl]amino}-6-pyridin-4-ylpyrimidin-4(3H)-one], the inhibition at 1 µM is 61%.
`CN(c1nc(-c2ccncc2)cc(=O)n1C)C1CCN(S(=O)(=O)Cc2ccccc2)C1` (stereo not shown) [Example 194, 2-{[1-(Benzylsulfonyl)pyrrolidin-3-yl](methyl)amino}-3-methyl-6-pyridin-4-ylpyrimidin-4(3H)-one]: the inhibition at 1 µM was 90%.
Same read-out and setting: next, `Cn1c(N[C@H]2CN(S(=O)(=O)c3ccccc3)C[C@@H]2F)nc(-c2ccncc2)cc1=O` [Example 176, 2-{[(3S,4S)-4-Fluoro-1-(phenylsulfonyl)pyrrolidin-3-yl]amino}-3-methy!-6-pyridin-4-ylpyrimidin-4(3H)-one]: 96%.

Staying with this test, now noted: 1 μM; Examples 201-221.
As to “Methyl (1R,5S)-3-(1-methyl- 6-oxo-4-pyridin-4-yl-16- dihydropyrimidin-2-yl)-38- diazabicyclo[3.2.1]octane-8- carboxylate [Example 201]”, the “Percent inhibition at 1 μM” value was found to be 89%.
Still for that read-out and setting: next, `COC(=O)N1CCCC(N(C)c2nc(-c3ccncc3)cc(=O)n2C)CC1` (stereo not shown) [Example 214, Methyl 4-[methyl(1-methyl-6-oxo-4-pyridin-4-yl-16-dihydropyrimidin-2-yl)amino]azepane-1-carboxylate]: 99%.
The same measure, in the same setting: next, “Methyl (1R,5S)-8-(1-methyl- 6-oxo-4-pyridin-4-yl-16- dihydropyrimidin-2-yl)-38- diazabicyclo[3.2.1]octane-3- carboxylate [Example 202]”: 93%.

The same test, now with this note: 1 μM; Examples 201-221; read-out: Percent inhibition at 1 μM.
As to `COC(=O)N1CCCC(Nc2nc(-c3ccncc3)cc(=O)n2C)C1` (stereo not shown) [Example 210, Methyl 3-[(1-methyl-6-oxo-4-pyridin-4-yl-16-dihydropyrimidin-2-yl)amino]piperidine-1-carboxylate], the inhibition at 1 µM was 99%.

Staying with this test, now noted: 1 μM; Examples 236-262.
Take “2-[(1R,5S)-3-Benzyl- 38- diazabicyclo[3.2.1]oct- 8-yl]-3-methyl-6- pyridin-4-ylpyrimidin- 4(3H)-one [Example 250]”: the “Percent inhibition at 1 μM” value is on record as 69%.

The test is the same for the next values; noted with them: 1 μM; Examples 236-262; read-out: Percent inhibition at 1 μM.
In the case of `Cn1c(NCC2CCN(Cc3ccccc3)C2)nc(-c2ccncc2)cc1=O` (stereo not shown) [Example 261, 2-{[(1-Benzylpyrrolidin-3-yl)methyl]amino}-3-methyl-6-pyridin-4-ylpyrimidin-4(3H)-one], the inhibition at 1 µM was 70%.

The test is the same for the next values; noted with them: 1 μM; GSK-3β cell free enzyme assay; Examples 42-60; read-out: Percent inhibition at 1 μM.
Turning to `CC(=O)N1CCCC(N(C)c2nc(-c3ccncc3)cc(=O)n2C)CC1` (stereo not shown) [Example 53, 2-[(1-Acetylazepan-4-yl)(methyl)amino]-3-methyl-6-pyridin-4-ylpyrimidin-4(3H)-one], the inhibition at 1 µM was determined as 79%.
For the molecule `CC(=O)N1CCCC(Nc2nc(-c3ccncc3)cc(=O)n2C)CC1` (stereo not shown) [Example 43, 2-[(1-Acetylazepan-4-yl)amino]-3-methyl-6-pyridin-4-ylpyrimidin-4(3H)-one], the inhibition at 1 µM was determined as 84%.

Staying with this test, now noted: cell free enzyme assay; Examples 1-35.
On to `CC1c2cccn2CCN1c1nc(-c2ccncc2)cc(=O)n1C` (stereo not shown) [Example 7, 3-Methyl-2-(1-methyl-3,4-dihydropyrrolo[1,2-a]pyrazin-2(1H)-yl)-6-pyridin-4-ylpyrimidin-4(3H)-one], for which the IC50 came to 10.7 nM.
As for `CCN(c1nc(-c2ccncc2)cc(=O)n1C)C1CCN(C(=O)OC(C)(C)C)C1` (stereo not shown) [Example 13, tert-butyl 3-[Ethyl(1-methyl-6-oxo-4-pyridin-4-yl-1,6-dihydropyrimidin-2-yl)amino]pyrrolidine-1-carboxylate], the IC50 was 16.5 nM.
On the same count and under the same terms, next, `Cn1c(NC2CCCN(C(=O)OC(C)(C)C)C2)nc(-c2ccncc2)cc1=O` (stereo not shown) [Example 19, tert-butyl 3-[(1-Methyl-6-oxo-4-pyridin-4-yl-1,6-dihydropyrimidin-2-yl)amino]piperidine-1-carboxylate]: 42 nM; `Cn1c(N2CC[C@@](O)(c3ccccc3)[C@H]3CCCC[C@H]32)nc(-c2ccncc2)cc1=O` [Example 1, 2-[(4S,4aS,8aR)-4-Hydroxy-4-phenyloctahydro-quinolin-1(2H)-yl]-3-methyl-6-pyridin-4-ylpyrimidin-4(3H)-one]: 0.7 nM.

Still in this test, the particulars now being: cell free enzyme assay; Examples 62-155.
`CCN(c1nc(-c2ccncc2)cc(=O)n1C)C1CCN(C(=O)c2ccccc2)CC1` [Example 74, 2-[(1-Benzoylpiperidin-4-yl)(ethyl)amino]-3-methyl-6-pyridin-4-ylpyrimidin-4(3H)-one]: the IC50 was 144 nM.
`CN(c1nc(-c2ccncc2F)cc(=O)n1C)[C@H]1[C@@H]2CN(C(=O)c3cccnc3Cl)C[C@@H]21` [Example 111, 2-[{(1R,5S,6s)-3-[(2-Chloropyridin-3-yl)carbonyl]-3-azabicyclo[3.1.0]hex-6-yl}(methyl)amino]-6-(3-fluoropyridin-4-yl)-3-methylpyrimidin-4(3H)-one]: the IC50 was determined as 2.2 nM.
For the molecule `CN(c1nc(-c2ccncc2F)cc(=O)n1C)[C@H]1[C@@H]2CN(C(=O)c3ccc(C(F)(F)F)nc3)C[C@@H]21` [Example 154, 6-(3-Fluoropyridin-4-yl)-3-methyl-2-{methyl[(1R,5S,6s)-3-{[6-(trifluoromethyl)pyridin-3-yl]carbonyl}-3-azabicyclo[3.1.0]hex-6-yl]amino}pyrimidin-4(3H)-one], the IC50 came out at 26.4 nM.
On to `Cn1c(NCC2CN(C(=O)Cc3ccccc3)C2)nc(-c2ccncc2)cc1=O` [Example 95, 3-Methyl-2-({[1-(phenylacetyl)azetidin-3-yl]methyl}amino)-6-pyridin-4-ylpyrimidin-4(3H)-one], for which the IC50 is 1380 nM.
Take `CN(c1nc(-c2ccncc2F)cc(=O)n1C)[C@H]1[C@@H]2CN(C(=O)c3ccc(F)c(F)c3)C[C@@H]21` [Example 153, 2-{[(1R,5S,6s)-3-(3,4-Difluorobenzoyl)-3-azabicyclo[3.1.0]hex-6-yl](methyl)amino}-6-(3-fluoropyridin-4-yl)-3-methylpyrimidin-4(3H)-one]: the IC50 stood at 7.23 nM.
In the case of `CN(c1nc(-c2ccncc2F)cc(=O)n1C)[C@H]1[C@@H]2CN(C(=O)c3ccccc3)C[C@@H]21` [Example 150, 2-{[(1R,5S,6s)-3-Benzoyl-3-azabicyclo[3.1.0]hex-6-yl](methyl)amino}-6-(3-fluoropyridin-4-yl)-3-methylpyrimidin-4(3H)-one], the IC50 was 1.51 nM.
As for `Cn1c(NC[C@@H]2CCCN2C(=O)Cc2ccccc2)nc(-c2ccncc2)cc1=O` [Example 93, 3-Methyl-2-({[(2S)-1-(phenylacetyl)pyrrolidin-2-yl]methyl}amino)-6-pyridin-4-ylpyrimidin-4(3H)-one], the IC50 is 878 nM.
For the molecule `CCN(c1nc(-c2ccncc2)cc(=O)n1C)C1CCN(C(=O)Cc2ccccc2)CC1` [Example 92, 2-{Ethyl[1-(phenylacetyl)piperidin-4-yl]amino}-3-methyl-6-pyridin-4-ylpyrimidin-4(3H)-one], the IC50 came out at 105 nM.
Turning to `Cn1c(NC2CCN(C(=O)Cc3ccccc3)CC2)nc(-c2ccncc2)cc1=O` [Example 85, 3-Methyl-2-{[1-(phenylacetyl)piperidin-4-yl]amino}-6-pyridin-4-ylpyrimidin-4(3H)-one], the IC50 came to 333 nM.
Take `CN(c1nc(-c2ccncc2F)cc(=O)n1C)[C@H]1[C@@H]2CN(C(=O)c3cccc(F)c3F)C[C@@H]21` [Example 137, 2-{[(1R,5S,6s)-3-(2,3-Difluorobenzoyl)-3-azabicyclo[3.1.0]hex-6-yl](methyl)amino}-6-(3-fluoropyridin-4-yl)-3-methylpyrimidin-4(3H)-one]: the IC50 amounted to 3.29 nM.

The same test, now with this note: cell free enzyme assay; Examples 222-234.
In the case of `CCOC(=O)N1CCCC(N(C)c2nc(-c3ccncn3)cc(=O)n2C)C1` (stereo not shown) [Example 222, Ethyl 3-[methyl(1-methyl-6-oxo-1,6-dihydro-4,4′-bipyrimidin-2-yl)amino]piperidine-1-carboxylate], the IC50 is 1.14 nM.
On to `CCOC(=O)N1CCC[C@@H]1CN(CC)c1nc(-c2ccncn2)cc(=O)n1C` [Example 227, Ethyl (2R)-2-{[ethyl(1-methyl-6-oxo-1,6-dihydro-4,4′-bipyrimidin-2-yl)amino]methyl}pyrrolidine-1-carboxylate], for which the IC50 amounted to 0.825 nM.
As to `CCOC(=O)N1CCC[C@@H](Nc2nc(-c3ccncn3)cc(=O)n2C)C1` [Example 229, Ethyl (3R)-3-[(1-methyl-6-oxo-1,6-dihydro-4,4′-bipyrimidin-2-yl)amino]piperidine-1-carboxylate], the concentration for half-maximal inhibition (IC50) came out at 1.99 nM.

Still in this test, the particulars now being: cell free enzyme assay; Examples 265-291.
`CC(C)Cc1nn(C)c2c(=O)[nH]c(N3C[C@@H]4[C@H](C3)[C@H]4N(C)c3nc(-c4ccncc4F)cc(=O)n3C)nc12` [Example 278, 5-[(1R,5S,6s)-6-{[4-(3-Fluoropyridin-4-yl)-1-methyl-6-oxo-1,6-dihydropyrimidin-2-yl](methyl)amino}-3-azabicyclo[3.1.0]hex-3-yl]-3-isobutyl-1-methyl-1,6-dihydro-7H-pyrazolo[4,3-d]pyrimidin-7-one]: the IC50 stood at 109 nM.
On to `CN(c1nc(-c2ccncc2F)cc(=O)n1C)[C@H]1[C@@H]2CN(c3nc4cc(C(F)(F)F)ccc4[nH]3)C[C@@H]21` [Example 281, 6-(3-Fluoropyridin-4-yl)-3-methyl-2-(methyl{(1R,5S,6s)-3-[5-(trifluoromethyl)-1H-benzimidazol-2-yl]-3-azabicyclo[3.1.0]hex-6-yl}amino)pyrimidin-4(3H)-one], for which the IC50 was found to be 36.3 nM.
